# According to US11197856B2, “Bicyclic compounds and methods for their use in treating autism” (priority 2013, dated 2021):
# What was measured:
# Aged rats = assay: Novel Object Recognition Test (NORT) in aged rats; type: in vivo, male Wistar rats; conditions: 27 days after single 20 ng/animal i.c.v.
# Description: Aged rats (male Wistar rats, 18-20 months old) were divided into four groups: two vehicle-treated (groups 1 and 3) and two G-2-AllylP treated (groups 2 and 4) (all groups n=6-8). Cyclic G-2-AllylP was synthesised by the Department of Medicinal Chemistry and dissolved in normal saline before the treatment. On day 1 a single dose of cyclic G-2-AllylP was given centrally (20 ng/animal, i.c.v.) to the animals in groups 2 and 4; saline was administered to groups 1 and 3. The memory tests using Novel Object Recognition Test started either on day 3 (groups 1 and 2) or 24 (groups 3 and 4) after the treatment. On the completion of the NORT, the rats were killed with an overdose of sodium pentobarbital and were perfused transcardially with normal saline followed by 10% formalin. Tissues collected at day 7 in groups 1 and 2, and at day 28 from groups 3 and 4. The brains were kept in the same fixative for a minimum of 2 days before being processed using a standard paraffin embedding procedure. Briefly, small blocks (10×10×3 mm) of tissue were fixed for up to 24 hrs. The blocks were then infiltrated and embedded with paraffin and cut in ribbons and mounted on slides. Slides were then stored until immunostaining was commenced. Synaptogenesis in brain tissue was examined using immunohistochemical staining. […]
# [1] = system: fmr1-knockout mice and wild-type mice; assay: Elevated Plus Maze; type: in vivo
# Excerpt: In another study, we used an “Elevated Plus Maze.” The Elevated Plus Maze test is one of the most widely used tests for measuring anxiety-like hyperactivity in mice. The test is based on the natural aversion of mice for open and elevated areas, as well as on their natural spontaneous exploratory behavior in novel environments. FIG. 23 depicts a photograph of a device used in this study. The apparatus consists of two open arms and two closed arms, crossed in the middle perpendicularly to each other, and a center area. The open arms are more exposed and therefore create more anxiety in the mice. Mice therefore spend more time in the closed arms and visit them more frequently. Mice were given access to all of the arms and were allowed to move freely between them. The number of entries into the open arms, the time spent in the open arms, and time spent in the center were used as indices of open space-induced anxiety.
# MeCP2 deficient mice = assay: Seizure activity, electroencephalograph recordings in MeCP2 deficient mice; type: in vivo
# Excerpt: Electroencephalograph: recordings of wild-type mice and MeCP2 deficient mice treated with either saline or cG-2-AllylP are obtained using methods described in U.S. Pat. No. 7,714,020, incorporated fully by reference.
# [2] = system: hippocampal slices of Shank3-deficient mice; assay: Shank3-deficient mice: hippocampal slice electrophysiology; type: in vivo
# Description: 1 to 3 month old wild-type and heterozygous Shank3-deficient mice are divided into 4 treatment groups: placebo treated wild-type, placebo treated Shank3-deficient group and two Shank3-deficient cG-2-AllylP treated groups. The animals are given placebo (water) or cG-2-AllylP formulated in water administered orally, b.i.d for 14 days. cG-2-AllylP is administered at two doses: 15 or 60 mg/kg.
# Post-mortem, acute hippocampal slices (350 μm) are prepared from mice using a tissue chopper. Slices are maintained and experiments are conducted at 32° C. Slices are perfused with Ringer's solution containing (in mM): NaCl, 125.0; KCl, 2.5; MgSO4, 1.3; NaH2PO4, 1.0; NaHCO3, 26.2; CaCl2, 2.5; glucose, 11.0. The Ringer's solution is bubbled with 95% 02/5% CO2, at 32° C., during extracellular recordings (electrode solution: 3 M NaCl). Slices are maintained for 1 hr prior to establishment of a baseline of field excitatory postsynaptic potentials (fEPSPs) recorded from stratum radiatum in area CA1, evoked by stimulation of the Schaffer collateral-commissural afferents (100 μs pulses every 30 s) with bipolar tungsten electrodes placed into area CA3. Test stimulus intensity is adjusted to obtain fEPSPs with amplitudes that are one-half of the maximal response. The EPSP initial slope (mV/ms) is determined from the average waveform of four consecutive responses. Input-output (I/O) curves are generated by plotting the fEPSP slope versus fiber volley amplitude in low-Mg^2+ (0.1 mM) solution. AMPA receptor-mediated and NMDA receptor-mediated I/O relationships are measured in the presence of ionotropic glutamate receptor antagonists: […] APV (50 μM) and 6-cyano-7-nitroquinoxaline-2,3-dione CNQX (100 μM). Paired-pulse responses are measured with interstimulus intervals of 10 to 200 ms, and are expressed as the ratio of the average responses to the second stimulation pulse to the first stimulation pulse. […]
compound,measurement,setting,value
"C=CC[C@]12CCCN1C(=O)CNC2=O [cG-2-AllylP, (8aS)-Allyl-hexahydropyrrolo[1,2-a]pyrazine-1,4-dione]",novelty recognition (NORT),Aged rats,trend to improve the novelty recognition
same,time spent in the closed arm,[1]; fmr1-knockout animals,normalized the time spent in the closed arm
same,time spent in the open arms,[1]; fmr1-knockout animals,normalized the time spend in the open arms
same,time spent in the center,"[1]; fmr1-knockout mice, p<0.001",significantly less time than vehicle-treated fmr1-knockout animals
same,time spent in the center,[1]; wild-type mice,slightly less time in the center than did vehicle-treated wild-type animals
same,time spent in the closed arm,[1]; wild-type mice,about the same amount of time in the closed arm
same,motor seizures and non-convulsive seizures,MeCP2 deficient mice,effective in decreasing both motor seizures and non-convulsive seizures
same,hippocampal long-term potentiation (LTP) and its maintenance,"[2]; both Shank3-deficient groups, vs placebo",increases hippocampal long-term potentiation (LTP) and its maintenance
same,AMPA receptor-mediated field potentials,"[2]; both heterozygous groups, 15 or 60 mg/kg",normalizes the AMPA receptor-mediated field potentials
same,average slope of I/O function,"[2]; both heterozygous groups, vs placebo treated Shank3-deficient group",increase in the average slope of I/O function
